# Assay results from PubChem BioAssay AID1324 (NMMLSC, 2008).
# Active and inactive are the calls of the source. How the calls were made is not given here.
# Target: glutathione S-transferase (GST-GSH binding)
# Assay: GST–glutathione interaction disruption – biochemical, multiplex beads, flow cytometry, HPSMTB buffer, profiling panel (AID 1324);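 further: glutathione beads loaded with GST-green fluorescent protein and no fluorescent Bim peptide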
# Details: multiplex bead flow cytometry, MCF
row,Structure (SMILES),EC50
1,Cc1ccc(O)c(NC2=C(Cl)C(=O)N(Cc3ccccc3)C2=O)c1,inactive
2,COc1ccc(OC)c(-n2c(=O)c3ccccc3c3ccccc3c2=O)c1,inactive

# Same assay, conditions: multiplex bead flow cytometry, MCF, concentration not given here
row,percent span inhibition,Structure (SMILES)
1,inactive,CCOC(=O)CSC1=NC(=O)/C(=C/c2ccc(Br)cc2)S1
2,inactive,CCN(CC)c1ccc(NC(=O)c2ccccc2F)cc1S(=O)(=O)Nc1ccccc1OC
3,inactive,CCC(CC)C(=O)Nc1cccc(SC)c1
4,inactive,C=CCn1c(C)cc(-c2csc(NC)n2)c1C
5,inactive,CCC(=O)NC(c1ccc(C)cc1)c1cc([N+](=O)[O-])c2cccnc2c1O (stereo unspecified)
6,inactive,COc1ccc2c3c(cccc13)N(C)N=C2C
7,inactive,Cc1ccc(-c2cc(C(=O)Nc3cc(C(=O)O)ccc3C)c3ccccc3n2)cc1
8,inactive,CCOc1ccc2nc(SCC(=O)N3c4ccccc4Sc4ccccc43)c(C#N)cc2c1
9,inactive,Cc1cc(C)n(CC(=O)N/N=C/c2cccc([N+](=O)[O-])c2)n1
10,inactive,Cc1cc(C)c(C)c(S(=O)(=O)N2CCN(CC(=O)NC(=O)NCc3ccccc3)CC2)c1C
11,inactive,BrC(=C\c1ccccc1)/C=N/N1CCN(c2ccccc2)CC1
12,inactive,Cc1ccc(-n2c(CSc3nc(C)cc(C)n3)nnc2SCC(=O)NCc2ccco2)cc1
13,inactive,Cc1ccc(-c2ccc(/C=C3\SC(N4CCOCC4)=NC3=O)o2)cc1
14,inactive,COc1ccc(OCCNC(=O)c2ccccc2OCC(=O)N2CCCCC2)cc1
15,inactive,Cc1csc(Nc2ccccc2C(F)(F)F)n1
16,inactive,c1coc(C2=Nc3cccc4cccc(c34)N2)c1
17,inactive,CCCCOC(=O)c1nc(Cl)c(Cl)c(N)c1Cl
18,inactive,Clc1ccc2c(N/N=C/c3ccccc3Br)ccnc2c1
19,inactive,COCCNc1nc(=S)[nH]c2cc(OC)c(OC)cc12
20,inactive,O=C(CCc1ccccc1)N1CCN(c2ccccn2)CC1
21,inactive,COc1cc(/C=N/NC(=O)c2ccc([N+](=O)[O-])cc2Cl)cc(Br)c1O

# Further lines, the molecule ahead of its results:
row,Structure (SMILES),percent span inhibition
1,Cc1cc[n+]2cc(-c3cccc([N+](=O)[O-])c3)c(-c3cccc([N+](=O)[O-])c3)cc2c1,inactive
2,CNc1ccc(Br)cc(C(=O)/C=C/c2cccc(OC)c2)c1=O,inactive
3,O=C(COc1ccccc1Br)NCc1ccccn1,inactive
4,COc1ccccc1-n1c(-c2cc(-c3ccc(F)cc3)n[nH]2)n[nH]c1=S,inactive
5,NC(=O)c1c(NC(=O)C2CCCO2)sc2c1CCCC2 (stereo unspecified),inactive
6,O=C(Nc1ccccn1)c1cc2ccccc2o1,inactive
7,Cc1ccc(-c2cc(-c3ccccc3Cl)c(C#N)c(N)n2)o1,inactive
8,CCOC(=O)c1snc(-c2ccc(F)cc2)c1N,inactive
9,Nc1cccc(-c2cn3cccnc3n2)c1,inactive
10,N#Cc1cccc(N=c2ssnc2Cl)c1,inactive
11,CN=c1scc(-c2cccs2)n1/N=C/c1ccc(O)c(O)c1O,inactive
12,CCOC(=O)c1[nH]cnc1C(=O)NC(C)C,inactive
13,O=C(NC1=C(Nc2ccc(Cl)cc2)C(=O)c2ccccc2C1=O)c1ccccc1,inactive
14,Cc1ccc(NC(=O)CC2S/C(=N/N=C/c3c[nH]c4ccccc34)NC2=O)cc1 (stereo unspecified),inactive
15,Nc1ccc(-c2cn3cccnc3n2)cc1,inactive
16,COc1cccc(/C=N/Nc2nn3cnnc3c3ccccc23)c1O,inactive
17,O=C(OCC(=O)c1ccc[nH]1)c1ccccc1,inactive
18,Cc1cc(N2CCN(C)CC2)nc2ccc(NC(=S)N3CCC4(CC3)OCCO4)cc12,inactive
19,Cc1cc(-c2nnc3n2N=C(c2ccc(-c4ccccc4)cc2)CS3)n[nH]1,inactive
20,COc1cc(C2Nc3cccc4cccc(c34)N2)cc(OC)c1O,inactive
21,O=C(Nc1ccccc1)Nc1ccc2ncoc2c1,inactive
22,COc1ccc(NC(=O)c2ccc3c(c2)NC(=O)CS3)cc1S(=O)(=O)Nc1ccc(Br)cc1,inactive
23,CCc1cccc(CC)c1NC(=S)N1CCn2cccc2C1c1cccnc1 (stereo unspecified),inactive
24,CCOc1ccccc1NC(=O)CSc1ccc2nnc(-c3cccnc3)n2n1,inactive
25,CCOc1cccc(CNc2ccc(O)cc2)c1OCc1ccccc1Cl,inactive
26,CCOc1cc(NC(=S)NC)c(OCC)cc1NC(=O)c1ccc(OC)cc1,inactive
27,c1ccc2c(N3CCOCC3)nc(N3CCOCC3)nc2c1,inactive
28,Cc1ccccc1/C=N/Nc1ccnc2cc(Cl)ccc12,inactive
